Target: T1, SUMO (Homo sapiens, UniProt Q9UBT2)
T1 sequence (Q9UBT2 1-640): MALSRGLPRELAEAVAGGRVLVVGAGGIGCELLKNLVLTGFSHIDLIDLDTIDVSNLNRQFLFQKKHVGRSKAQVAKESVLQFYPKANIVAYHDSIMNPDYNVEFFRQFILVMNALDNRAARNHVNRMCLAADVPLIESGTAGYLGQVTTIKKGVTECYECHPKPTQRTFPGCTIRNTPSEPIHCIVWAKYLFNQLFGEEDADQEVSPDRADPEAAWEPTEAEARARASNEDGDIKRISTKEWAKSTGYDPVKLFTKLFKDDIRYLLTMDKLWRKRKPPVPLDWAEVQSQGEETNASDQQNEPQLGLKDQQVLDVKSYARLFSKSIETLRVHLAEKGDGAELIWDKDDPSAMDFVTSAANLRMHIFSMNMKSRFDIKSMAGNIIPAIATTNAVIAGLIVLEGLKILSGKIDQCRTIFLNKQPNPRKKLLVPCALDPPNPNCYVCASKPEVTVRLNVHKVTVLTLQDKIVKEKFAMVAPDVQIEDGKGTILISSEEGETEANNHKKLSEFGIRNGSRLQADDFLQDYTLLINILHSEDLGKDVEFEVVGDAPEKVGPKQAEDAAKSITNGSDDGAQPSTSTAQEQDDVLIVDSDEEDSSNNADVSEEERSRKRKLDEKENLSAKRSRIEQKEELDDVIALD
T1 sequence (Q9UBE0 1-346 partner): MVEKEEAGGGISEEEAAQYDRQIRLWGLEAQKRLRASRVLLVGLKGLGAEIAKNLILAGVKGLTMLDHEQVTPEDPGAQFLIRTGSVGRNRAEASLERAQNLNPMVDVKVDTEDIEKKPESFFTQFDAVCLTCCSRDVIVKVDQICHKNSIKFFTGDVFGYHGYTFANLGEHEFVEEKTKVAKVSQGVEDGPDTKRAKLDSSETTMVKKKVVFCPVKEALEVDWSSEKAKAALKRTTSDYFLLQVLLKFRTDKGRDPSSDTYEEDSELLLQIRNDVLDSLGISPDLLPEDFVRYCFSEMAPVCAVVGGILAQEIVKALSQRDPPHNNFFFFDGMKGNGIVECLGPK
Assay: SUMO activity (Table I, biological activities)
Format: biochemical
Parameters: key: + (less active); ++ (active); +++ (most active)

Row | Compound | SUMO
1 | COC(=O)C1=C(C(=O)OC)C2(C(Cc3ccccc3Cl)Nc3cccc(OCc4ccccc4)c3)C=CC1O2 (centres unmarked) [Compound 674] | ++
2 | CNC(=O)Cc1ccc(CC(Nc2ccccc2)C23C=CC(O2)C(C(=O)OC)=C3C(=O)OC)cc1 (centres unmarked) [Compound 665] | ++
3 | CNC(=O)C1=C(C(=O)OC)C2(C(Cc3ccccc3)Nc3ccccc3)C=CC1(C)O2 (centres unmarked) [Compound 293] | ++
4 | COC(=O)C1=C(C(=O)OC)C2(C(Cc3ccc(NC(C)C)cc3)Nc3ccccc3)C=CC1O2 (centres unmarked) [Compound 684] | +
5 | CCOc1cccc(NC(Cc2ccccc2)C23C=CC(O2)C(C(=O)NC)=C3C(=O)OC)c1 (centres unmarked) [Compound 250] | ++
6 | COC(=O)C1=C(C(=O)OC)C2(C(Cc3ccccc3Cl)Nc3ccc(Oc4ccccc4)cc3)C=CC1O2 (centres unmarked) [Compound 678] | +
7 | COC(=O)C1=C(C(=O)OC)C2(C(Nc3ccccc3)c3cc4ccccc4nc3Cl)C=CC1O2 (centres unmarked) [Compound 671] | ++
8 | COc1ccc(NC(=O)C2=C(C(=O)O)C3(C(Cc4ccccc4)Nc4ccccc4)C=CC2O3)cc1 (centres unmarked) [Compound 175] | +
9 | CCCCC(Nc1cc(F)cc(F)c1)C12C=CC(O1)C(C(=O)NCCN(CC)CC)=C2C(=O)OC (centres unmarked) [Compound 398] | +
10 | CCC12C=CC(C(Cc3ccccc3)Nc3ccccc3)(O1)C(C(=O)OC)=C2C(=O)OC (centres unmarked) [Compound 629] | ++
11 | COC(=O)C1=C(C(=O)OC)C2(C(Cc3ccc(F)cc3)Nc3cc(F)cc(Cl)c3)C=CC1O2 (centres unmarked) [Compound 451] | +++
12 | COC(=O)C1=C(C(=O)OC)C2(C(Cc3ccc4ccccc4c3)Nc3ccccc3)C=CC1O2 (centres unmarked) [Compound 630] | +++
13 | CCCCC(Nc1ccccc1)C12C=CC(O1)C(C(=O)OC)=C2C(=O)OC (centres unmarked) [Compound 210] | +++
14 | CCCCC(Nc1cc(F)cc(F)c1)C12C=CC(O1)C(C(=O)NCCN(C)C)=C2C(=O)OC (centres unmarked) [Compound 397] | +
15 | COC(=O)C1=C(C(=O)NC2CCN(C)CC2)C2CCC1(C(Cc1ccccc1)Nc1cc(F)cc(F)c1)O2 (centres unmarked) [Compound 303] | ++
16 | CCOC(=O)C1=C(C(=O)NC2CCN(C)CC2)C2(CO)C=CC1(C(Cc1ccccc1)Nc1ccccc1)O2 (centres unmarked) [Compound 269] | ++
17 | COC(=O)C1=C(C(N)=O)C2C=CC1(C(Cc1ccccc1)Nc1cc(F)cc(F)c1)O2 (centres unmarked) [Compound 207] | +
18 | COC(=O)C1=C(C(=O)NCCNC(=O)OC(C)(C)C)C2C=CC1(C(Cc1ccccc1)Nc1ccc(F)cc1)O2 (centres unmarked) [Compound 539] | ++
19 | CCOC(=O)C1=C(C(=O)OCC)C2(C(Cc3ccccc3)Nc3ccccc3)C=CC1O2 (centres unmarked) [Compound 232] | +++
20 | COC(=O)C1=C(C(=O)Nc2ccc(OC(F)(F)F)cc2)C2C=CC1(C(Cc1ccccc1)Nc1ccccc1)O2 (centres unmarked) [Compound 196] | +
21 | COC(=O)C1=C(C(=O)NCCO)C2C=CC1(C(Cc1ccccc1)Nc1ccccc1)O2 (centres unmarked) [Compound 152] | ++

Row | Compound | SUMO
22 | COC(=O)C1=C(C(=O)OC)C2(C(Cc3ccccc3F)Nc3cc(F)cc(F)c3)C=CC1O2 (centres unmarked) [Compound 454] | +++
23 | COC(=O)C1=C(C(=O)Nc2ccn(C)n2)C2C=CC1(C(Cc1ccccc1)Nc1ccccc1)O2 (centres unmarked) [Compound 197] | ++
24 | C=CC(C)(C)C(Nc1ccccc1)C12C=CC(O1)C(C(=O)OC)=C2C(=O)OC (centres unmarked) [Compound 188] | ++
25 | COC(=O)C1=C(C(=O)OC)C2(C(Cc3c(Cl)cccc3Cl)Nc3ccccc3)C=CC1O2 (centres unmarked) [Compound 657] | ++
26 | COC(=O)C1=C(C(=O)OC)C2(C(Cc3ccccc3)Oc3cccnc3)C=CC1O2 (centres unmarked) [Compound 482] | +
27 | COC(=O)C1=C(C(=O)OC)C2(C(Cc3ccc(C4CC4)cc3)Nc3ccccc3)C=CC1O2 (centres unmarked) [Compound 693] | ++
28 | COC(=O)C1=C(C(=O)Nc2ccc(C)c(F)c2)C2C=CC1(C(Cc1ccccc1)Oc1cccnc1)O2 (centres unmarked) [Compound 484] | +
29 | COC(=O)C1=C(C(=O)OC)C2(C(Cc3ccccc3)N(C)c3c(F)cccc3F)C=CC1O2 (centres unmarked) [Compound 237] | +
30 | COC(=O)C1=C(C(=O)NC2CCOCC2)C2C=CC1(C(Cc1ccccc1)Nc1ccccc1)O2 (centres unmarked) [Compound 275] | +++
31 | COC(=O)C1=C(C(=O)OC)C2(C(Cc3ccc(Br)cc3)Nc3ccccc3)C=CC1O2 (centres unmarked) [Compound 652] | ++
32 | COC(=O)C1=C(C(=O)OC)C2(C(Cc3ccccc3C#N)Nc3ccccc3)C=CC1O2 (centres unmarked) [Compound 660] | ++
33 | COC(=O)C1=C(C(=O)OC)C2(C(Cc3ccccc3Cl)Nc3ccc(F)cc3)C=CC1O2 (centres unmarked) [Compound 673] | ++
34 | COC(=O)C1=C(C(=O)OC)C2(C(Cc3ccccc3Cl)Nc3cccc(Oc4ccccc4)c3)C=CC1O2 (centres unmarked) [Compound 672] | ++
35 | COC(=O)C1=C(C(=O)OC)C2(C(Nc3ccccc3)c3ccc(CN4CCOCC4)cc3)C=CC1O2 (centres unmarked) [Compound 413] | +
36 | COC(=O)C1=C(C(=O)OC)C2(C(Cc3cccc4ccccc34)Nc3ccccc3)C=CC1O2 (centres unmarked) [Compound 635] | ++
37 | CCOC(=O)C1=C(C(=O)OCC)C2(C(Cc3ccccc3)Nc3cc(F)cc(F)c3)C=CC1O2 (centres unmarked) [Compound 234] | ++
38 | CCOC(=O)C1=C(C(=O)Nc2cccc(F)c2C)C2C=CC1(C(Nc1ccccc1)c1ccc(CN3CCOCC3)cc1)O2 (centres unmarked) [Compound 603] | ++
39 | CCCNC(=O)C1=C(C(=O)NCCC)C2(C(Cc3ccccc3)Nc3ccccc3)C=CC1O2 (centres unmarked) [Compound 157] | +
40 | COC(=O)C1=C(C(=O)OC)C2(C(Cc3ccc(-c4ccccc4)cc3)Nc3ccccc3)C=CC1O2 (centres unmarked) [Compound 677] | ++
41 | COC(=O)C1=C(C(=O)O)C2C=CC1(C(Cc1ccccc1)Nc1cc(F)cc(F)c1)O2 (centres unmarked) [Compound 203] | ++
42 | COC(=O)C1=C(C(=O)OC)C2(C(Nc3ccccc3)c3ccc4cc(OC)ccc4c3)C=CC1O2 (centres unmarked) [Compound 653] | ++

Row | Compound | SUMO
43 | COC(=O)C1=C(C(=O)NCCN(C)C)C2C=CC1(C(Cc1ccccc1Cl)Nc1ccc(F)cc1)O2 (centres unmarked) [Compound 688] | +++
44 | COC(=O)C1=C(C(=O)OC)C2(C(Cc3cccc(-c4ccccc4)c3)Nc3ccccc3)C=CC1O2 (centres unmarked) [Compound 682] | +
45 | COC(=O)C1=C(C(=O)OC)C2(C(Cc3ccc(OCC(C)C)cc3)Nc3ccccc3)C=CC1O2 (centres unmarked) [Compound 651] | ++
46 | COC(=O)C1=C(C(=O)NC2CCN(C(=O)OC(C)(C)C)CC2)C2C=CC1(C(Cc1ccccc1)Nc1ccccc1)O2 (centres unmarked) [Compound 198] | +
47 | COC(=O)C1=C(C(=O)OC)C2(C(Cc3ccc(C#N)cc3)Nc3ccccc3)C=CC1O2 (centres unmarked) [Compound 643] | ++
48 | CCOC(=O)C1=C(C(=O)OCC)C2(C(Nc3ccccc3)c3ccc(CN4CCOCC4)cc3)C=CC1O2 (centres unmarked) [Compound 659] | ++
49 | COC(=O)C1=C(C(=O)OC)C2(C(Cc3ccccc3)Oc3cccc(CO)c3)C=CC1O2 (centres unmarked) [Compound 520] | ++
50 | COC(=O)C1=C(C(=O)OC)C2(C(Cc3ccccc3)Nc3ccccc3)C=CC1(c1ccccc1)O2 (centres unmarked) [Compound 696] | +
51 | COC(=O)C1=C(C(=O)Nc2ccc(C)c(F)c2)C2C=CC1(C(Cc1ccccc1)Nc1ccc(F)cc1)O2 (centres unmarked) [Compound 346] | ++
52 | CNc1ccc(CC(Nc2ccccc2)C23C=CC(O2)C(C(=O)OC)=C3C(=O)OC)cc1 (centres unmarked) [Compound 685] | ++
53 | COC(=O)C1=C(C(=O)OC)C2(C(Cc3ccc(Cl)nc3)Nc3ccccc3)C=CC1O2 (centres unmarked) [Compound 649] | ++
54 | COC(=O)C1=C(C(=O)Nc2ccc(N3CCN(C)CC3)cc2)C2C=CC1(C(Cc1ccccc1)Nc1ccccc1)O2 (centres unmarked) [Compound 291] | ++
55 | COC(=O)C1=C(C(=O)NC2CCN(c3ccccc3)CC2)C2C=CC1(C(Cc1ccccc1)Nc1ccccc1)O2 (centres unmarked) [Compound 290] | +
56 | COC(=O)C1=C(C(=O)OC)C2(C(Cc3ccccc3Cl)N[S@+]([O-])C(C)(C)C)CCC1O2 (some centres unmarked) [Compound 694] | ++
57 | COC(=O)C1=C(C(=O)OC)C2(C(Cc3cccc(OC)c3)Nc3ccccc3)C=CC1O2 (centres unmarked) [Compound 636] | +++
58 | COC(=O)C1=C(C(=O)OC)C2(C(Cc3ccccc3)Nc3c(F)cccc3F)C=CC1O2 (centres unmarked) [Compound 228] | ++
59 | COC(=O)C1=C(C(=O)NCCCCCNC(=O)OCC2c3ccccc3-c3ccccc32)C2C=CC1(C(Cc1ccccc1)Nc1cc(F)cc(F)c1)O2 (centres unmarked) [Compound 244] | +
60 | COC(=O)C1=C(C(=O)Nc2ccc(OC)cc2)C2C=CC1(C(Cc1ccccc1)Nc1ccccc1)O2 (centres unmarked) [Compound 194] | ++
61 | COC(=O)C1=C(C(=O)N2CCN(C)CC2)C2C=CC1(C(Cc1ccccc1)Nc1ccccc1)O2 (centres unmarked) [Compound 164] | +
62 | COC(=O)C1=C(C(=O)OC)C2(C(Oc3ccccc3)c3ccc(CN4CCOCC4)cc3)C=CC1O2 (centres unmarked) [Compound 495] | ++
